# According to publication PMC11524583, “Neurons enhance blood–brain barrier function via upregulating claudin-5 and VE-cadherin expression due to glial cell line-derived neurotrophic factor secretion” (eLife, 2024):
# Values joined by “and” are separate entries in the source; they are usually repeats but may differ in a detail not shown here. Equal entries are not always repeated. “Also recorded” adds a separate entry of the source. Where two headings read alike, the source gives them in different places. Marks after values point to notes of the source that are not given here.
# Tests used:
# [1] = tested on: triple co-culture BBB model (hCMEC/D3, U251 and SH-SY5Y cells)
# [2] = tested on: hCMEC/D3 mono-culture BBB model; experiment: In vitro BBB permeability study (Papp), hCMEC/D3 mono-culture BBB model; settings: for GDNF-decreased permeability of fluorescein and FITC-Dex, effect of inhibitor: hCMEC/D3 mono-culture, 200 pg/ml GDNF, 3 μM SPP-86 or 5 μM PP2
# [3] = tested on: triple co-culture BBB model (hCMEC/D3, U251 and SH-SY5Y cells); experiment: In vitro BBB permeability study (Papp), triple co-culture BBB model; settings: for decreased permeability of fluorescein and FITC-Dex in the triple co-culture BBB model, effect of inhibitor: 3 μM SPP-86 or 5 μM PP2
# [4] = tested on: hCMEC/D3 mono-culture BBB model
# [5] = unbound fraction in brain, cited from earlier work
# [6] = in vitro; settings: human
# [7] = in vitro; settings: human; remark: listed apart in the source
# [8] = tested on: VE-cadherin; experiment: Western blot of VE-cadherin expression in hCMEC/D3 cells; type: cell-based, Homo sapiens; settings: hCMEC/D3 cells, anti-GDNF antibody 0.25, 0.5, 1.0 μg/ml; for GDNF-induced VE-cadherin expression: 200 pg/ml GDNF, 3 μM SPP-86, 5 μM PP2, 3 μM LY294002, 2 μM U0126, 5 μM SP600125, 2 μM SB203580; for US-CM-induced VE-cadherin expression: 3 μM SPP-86, 5 μM PP2, 3 μM LY294002, 2 μM U0126
# Procedure: (§1) Whole-cell and tissue lysates, nucleoprotein, and cytoplasmic protein were prepared using RIPA Lysis Buffer (Beyotime, Shanghai, China) as the described method ([Wu et al., 2021]). Proteins were separated through sodium dodecyl sulfate–polyacrylamide gel electrophoresis and transferred onto nitrocellulose or polyvinylidene difluoride membranes. The membranes were blocked with 5% skim milk and incubated with corresponding primary antibodies at 4°C overnight. After being washed with Tris-buffered saline Tween buffer, the membranes were incubated with secondary antibodies (Cell Signaling Technology, MA, USA) at 1:3000 dilution: Anti-mouse IgG, HRP-linked Antibody (#7076), Anti-rabbit IgG, HRP-linked Antibody (#7074). Protein levels were visualized using a highly sensitive ECL western blotting substrate and a gel imaging system (Tanon Science & Technology, Shanghai, China).
# (§2) CM of U251 cells (U-CM), SH-SY5Y cells (S-CM), or co-culture of U251 and SH-SY5Y cells (US-CM) was prepared. U251 cells were seeded at the top of the insert membrane and suspended on 6-well plates seeded with differentiated SH-SY5Y cells to co-culture U251 cells with SH-SY5Y cells. The medium was collected every 24 hr. The CMs were subsequently used for hCMEC/D3 cell culture after filtrating with 0.2 μm filters for 144 hr. The levels of GDNF, bFGF, IGF-1, and TGF-β in CMs were measured using corresponding ELISA kits according to the manufacturers’ instructions.
# (§3) Exogenous and endogenous GDNF in the medium was neutralized with anti-GDNF antibody (#AF-212-NA, R&D system, Minneapolis, MN, USA). 0.25, 0.5, and 1.0 μg/ml anti-GDNF antibody was added into the US-CM or medium containing 200 pg/ml GDNF, and then the medium was preincubated at 4°C for 1 hr. The hCMEC/D3 cells were incubated with 200 pg/ml GDNF or US-CM containing anti-GDNF antibody or not for 6 days, and then cell lysate was collected for western blot. The medium was replaced every 24 hr.
# (§4) Here, hCMEC/D3 cells were plated in the plates or culture dishes at 6 × 10^4 cells/cm^2 and transfected with 10 nM of negative control or human FOXO1, ETS1, and CDH5 siRNA (Tsingke Biotechnology, Beijing, China) for 12 hr using Lipofectamine 3000 (Invitrogen, Carlsbad, CA, USA) reagent according to the manufacturer’s instructions. Cells were then incubated with a medium containing GDNF for 72 hr.
# [9] = tested on: hCMEC/D3 mono-culture BBB model; experiment: TEER of hCMEC/D3 mono-culture BBB model; type: cell-based, Homo sapiens; settings: hCMEC/D3 mono-culture, 200 pg/ml GDNF, day 6; 3 μM SPP-86 or 5 μM PP2
# [10] = tested on: triple co-culture BBB model (hCMEC/D3, U251 and SH-SY5Y cells); experiment: TEER of triple co-culture BBB model; type: cell-based, Homo sapiens; settings: for increased TEER values in the triple co-culture BBB model, effect of inhibitor: day 6, 3 μM SPP-86 or 5 μM PP2
# Procedure: The establishment process of the triple co-culture model is illustrated in Figure 9. SH-SY5Y cells were seeded at a density of 4.5 × 10^4 cells/cm^2 in plates and differentiated with 10 μM retinoic acid (Sigma-Aldrich, St. Louis, MO, USA) for 72 hr. The differentiated SH-SY5Y cells were cultured in the fresh DMEM/F12 medium containing 10% FBS. U251 cells were seeded at 2 × 10^4 cells/cm^2 on the bottom of Transwell inserts (PET, 0.4 µm pore size, SPL Life Sciences, Pocheon, Korea) coated with rat-tail collagen (Corning Inc, Corning, NY, USA). Next, the inserts were suspended in plate wells containing the culture medium after 5 hr of incubation. After 24 hr of incubation, hCMEC/D3 cells were seeded on the apical side of the inserts at 3 × 10^4 cells/cm^2 and cultured for another 48 hr. Then, the inserts seeded with U251 and hCMEC/D3 cells were suspended in plates seeded with differentiated SH-SY5Y cells and co-cultured for another 6 days. The culture medium was replaced every 24 hr. TEER was periodically measured using a Millicell-ERS (MERS00002) instrument (Millipore, Billerica MA, USA) to monitor cell confluence and development of TJs.
# [11] = tested on: claudin-5; experiment: Western blot of claudin-5 expression in hCMEC/D3 cells; type: cell-based, Homo sapiens; settings: hCMEC/D3 cells, anti-GDNF antibody 0.25, 0.5, 1.0 μg/ml; for GDNF-induced claudin-5 expression: 200 pg/ml GDNF, 3 μM SPP-86, 5 μM PP2, 3 μM LY294002, 2 μM U0126, 5 μM SP600125, 2 μM SB203580; for US-CM-induced claudin-5 expression: 3 μM SPP-86, 5 μM PP2, 3 μM LY294002, 2 μM U0126
# Procedure: as §1, §2, §3, §4
# The plasmids encoding FOXO1 (EX-Z7404-M02) were constructed by GeneCopoeia (Rockville, MD, USA). The hCMEC/D3 cells were plated in plates or dishes at 6 × 10^4 cells/cm^2. They were subsequently transfected with 1 µg of negative control or plasmids encoding FOXO1 6 hr using Lipofectamine 3000 reagent according to the manufacturer’s instructions. Transfected cells were then incubated with the medium containing GDNF for 72 hr.
# [12] = in situ brain perfusion in rodents, published permeability multiplied by VSA 150 cm^2/g, cited from earlier work
structure (smiles),measurement,setting,value
CC(NC(C)(C)C)C(=O)c1cccc(Cl)c1 (centres unmarked) [Buproprion],PS,[1],850.58 µL/min/g
same,Papp A→B,"[2]; read-out: Papp Mean, Mono-culture BBB Model, mean of 4 replicates",15.2 ×10⁻⁶ cm/s
same,Papp A→B,"[3]; read-out: Papp Mean, Triple co-culture BBB model, mean of 4 replicates",11.3 ×10⁻⁶ cm/s
same,PS,[4],1139.58 µL/min/g
CN1CCN(C2=Nc3cc(Cl)ccc3Nc3ccccc32)CC1 [Clozapine],"fu, brain","[5]; ref Bhyrapuneni et al., 2018",0.0056
same,"fu, brain","[5]; ref Cremers et al., 2012",0.014^**
same,PS,"[1]; human, 30 min",8272.72 µL/min/g
same,"PSPre, Mono",[4]; human,"25,052.57 μl/min/g"
same,PS,"[4]; human, 30 min",25052.57 µL/min/g
same,Papp A→B at 30 min,"[6]; Papp, Triple",12.9 ± 2.06 ×10⁻⁶ cm/s
same,Papp A→B at 30 min,[7]; Papp (individual replicate),38.9 ×10⁻⁶ cm/s
same,Papp A→B at 30 min,"[7]; Papp, Mono",39 ± 0.54 ×10⁻⁶ cm/s
CC(C)n1nc(C#Cc2ccccc2)c2c(N)ncnc21 [SPP-86],GDNF-induced VE-cadherin expression,[8],markedly attenuated; also recorded: significantly suppressed
same,US-CM-induced VE-cadherin expression,[8],markedly attenuated; also recorded: markedly reversed
same,"GDNF-decreased permeability of fluorescein and FITC-Dex, effect of inhibitor",[2],almost abolished
same,"decreased permeability of fluorescein and FITC-Dex in the triple co-culture BBB model, effect of inhibitor",[3],completely reversed
same,"GDNF-increased TEER values, effect of inhibitor",[9],almost abolished
same,TEER,"[10]; Figure 2Q, group Triple+SPP, Day3, individual replicates, listed as SPP",56.76 Ω·cm2 and 57.75 Ω·cm2 and 55.77 Ω·cm2 and 59.4 Ω·cm2
same,TEER,"[10]; Figure 2Q, group Triple+SPP, Day4, individual replicates, listed as SPP",63.03 Ω·cm2 and 62.37 Ω·cm2 and 61.38 Ω·cm2 and 59.4 Ω·cm2
same,TEER,"[10]; Figure 2Q, group Triple+SPP, Day5, individual replicates, listed as SPP",71.94 Ω·cm2 and 75.24 Ω·cm2 and 74.25 Ω·cm2 and 72.27 Ω·cm2
same,TEER,"[10]; Figure 2Q, group Triple+SPP, Day6, individual replicates, listed as SPP",75.24 Ω·cm2 and 76.56 Ω·cm2 and 75.9 Ω·cm2 and 74.25 Ω·cm2
same,"increased TEER values in the triple co-culture BBB model, effect of inhibitor",[10],completely reversed
same,GDNF-induced claudin-5 expression,[11],markedly attenuated; also recorded: significantly suppressed
same,US-CM-induced claudin-5 expression,[11],markedly attenuated; also recorded: markedly reversed
CC(C)(C)n1nc(-c2ccc(Cl)cc2)c2c(N)ncnc21 [PP2],GDNF-induced VE-cadherin expression,[8],markedly attenuated
same,US-CM-induced VE-cadherin expression,[8],markedly attenuated
same,"GDNF-decreased permeability of fluorescein and FITC-Dex, effect of inhibitor",[2],almost abolished
same,"decreased permeability of fluorescein and FITC-Dex in the triple co-culture BBB model, effect of inhibitor",[3],completely reversed
same,"GDNF-increased TEER values, effect of inhibitor",[9],almost abolished
same,TEER,"[10]; Triple+PP2, Day3, single replicates, Figure 2S",61.05 Ω·cm2 and 61.38 Ω·cm2 and 59.07 Ω·cm2 and 63.36 Ω·cm2
same,TEER,"[10]; Triple+PP2, Day4, single replicates, Figure 2S",66.66 Ω·cm2 and 65.01 Ω·cm2 and 64.68 Ω·cm2 and 62.04 Ω·cm2
same,TEER,"[10]; Triple+PP2, Day5, single replicates, Figure 2S",81.51 Ω·cm2 and 78.21 Ω·cm2 and 77.88 Ω·cm2 and 76.89 Ω·cm2
same,TEER,"[10]; Triple+PP2, Day6, single replicates, Figure 2S",78.21 Ω·cm2 and 80.19 Ω·cm2 and 76.23 Ω·cm2 and 79.2 Ω·cm2
same,"increased TEER values in the triple co-culture BBB model, effect of inhibitor",[10],completely reversed
same,GDNF-induced claudin-5 expression,[11],markedly attenuated
same,US-CM-induced claudin-5 expression,[11],markedly attenuated
NC(=O)N1c2ccccc2C=Cc2ccccc21 [Carbamazepine],"fu, brain","[5]; ref Maurer et al., 2005",0.116^¶
same,PS,"[1]; human, 30 min",908.69 µL/min/g
same,"PSPre, Mono",[4]; human,2666.89 µL/min/g
same,PS,"[4]; human, 30 min",2666.89 µL/min/g
same,PSObs,"[12]; ref Summerfield et al., 2007",959.40^† μl/min/g
same,Papp A→B at 30 min,"[6]; Papp, Triple",11.7 ± 0.15 ×10⁻⁶ cm/s
same,Papp A→B at 30 min,"[7]; Papp, Mono",34.4 ± 1.26 ×10⁻⁶ cm/s
CN(C)CCC=C1c2ccccc2CCc2ccccc21 [Amitriptyline],"fu, brain","[5]; ref Fridén et al., 2011",0.01^‡
same,"fu, brain","[5]; ref Sánchez-Dengra et al., 2021",0.002
same,"fu, brain","[5]; ref Weber et al., 2013",0.0071
same,"PSPre, Triple",[1]; human,"13,149.00 μl/min/g"
same,PS,"[1]; human, 30 min",13149.00 µL/min/g
same,"PSPre, Mono",[4]; human,"13,716.00 μl/min/g"
same,PS,"[4]; human, 30 min",13716.00 µL/min/g
same,PSObs,"[12]; ref Avdeef and Sun, 2011",4608.00^*** μl/min/g
same,Papp A→B at 30 min,[6]; Papp (individual replicate),14 ×10⁻⁶ cm/s
same,Papp A→B at 30 min,[6]; Papp Mean,14.6 ×10⁻⁶ cm/s
same,Papp A→B at 30 min,"[6]; Papp, Triple",14.6 ± 0.27 ×10⁻⁶ cm/s
same,Papp A→B at 30 min,[7]; Papp (individual replicate),16.6 ×10⁻⁶ cm/s
same,Papp A→B at 30 min,[7]; Papp Mean,15.2 ×10⁻⁶ cm/s
same,Papp A→B at 30 min,"[7]; Papp, Mono",15.2 ± 0.64 ×10⁻⁶ cm/s
CN(C)CCC=C1c2ccccc2COc2ccccc21 [Doxepin],"fu, brain","[5]; ref Summerfield et al., 2007",0.025^†
same,PS,"[1]; human, 30 min",3837.60 µL/min/g
same,"PSPre, Mono",[4]; human,6076.80 µL/min/g
same,PS,"[4]; human, 30 min",6076.80 µL/min/g
same,PSObs,"[12]; ref Summerfield et al., 2007",2192.40^† μl/min/g
same,Papp A→B at 30 min,[7]; Papp Mean,16.9 ×10⁻⁶ cm/s
same,Papp A→B at 30 min,"[7]; Papp, Mono",16.9 ± 1.08 ×10⁻⁶ cm/s
CCN(CC)CCNC(=O)c1cc(Cl)c(N)cc1OC [Metoclopramide],"fu, brain","[5]; ref Summerfield et al., 2007",0.365^†
same,PS,"[1]; human, 30 min",163.41 µL/min/g
same,"PSPre, Mono",[4]; human,348.66 µL/min/g
same,PS,"[4]; human, 30 min",348.66 µL/min/g
same,PSObs,"[12]; ref Summerfield et al., 2007",125.10^† μl/min/g
same,Papp A→B at 30 min,[7]; Papp Mean,14.1 ×10⁻⁶ cm/s
same,Papp A→B at 30 min,"[7]; Papp, Mono",14.1 ± 1.44 ×10⁻⁶ cm/s
